Experimental data: patent US20220313707A1 (priority 2021, published 2022)

Test system: influenza A Hp1N1 virus
Parameters: species or system mice
Settings: mouse, in vivo

CC1(C)C(=O)N(c2ccc(C#N)c(C(F)(F)F)c2F)C(=S)N1c1ccc(CCCc2ncco2)nc1 [Proxalutamide]
14 d survival rate: 40%
Mean days of survival: 11.0 ± 2.83 days
Survival number (pcs.): 4 pcs.
Survival rate (%): 40%

CC1(C)C(=O)N(c2ccc(C#N)c(C(F)(F)F)c2)C(=S)N1c1ccc(OC[C@@H](O)CO)cc1 [SHR-3680]
14 d survival rate: 50%
Mean days of survival: 11.3 ± 2.87 days
Survival number (pcs.): 5 pcs.
Survival rate (%): 50%
